The results in this text go back to ChEMBL document CHEMBL2034891, “Discovery, design and synthesis of Y-shaped peroxisome proliferator-activated receptor δ agonists as potent anti-obesity agents in vivo” (Eur J Med Chem, 2012).

SMILES strings stand for the structures.

Assay [1] deals with T1, Peroxisome proliferator-activated receptor alpha (Homo sapiens, UniProt Q07869).
T1 sequence (Q07869 whole entry): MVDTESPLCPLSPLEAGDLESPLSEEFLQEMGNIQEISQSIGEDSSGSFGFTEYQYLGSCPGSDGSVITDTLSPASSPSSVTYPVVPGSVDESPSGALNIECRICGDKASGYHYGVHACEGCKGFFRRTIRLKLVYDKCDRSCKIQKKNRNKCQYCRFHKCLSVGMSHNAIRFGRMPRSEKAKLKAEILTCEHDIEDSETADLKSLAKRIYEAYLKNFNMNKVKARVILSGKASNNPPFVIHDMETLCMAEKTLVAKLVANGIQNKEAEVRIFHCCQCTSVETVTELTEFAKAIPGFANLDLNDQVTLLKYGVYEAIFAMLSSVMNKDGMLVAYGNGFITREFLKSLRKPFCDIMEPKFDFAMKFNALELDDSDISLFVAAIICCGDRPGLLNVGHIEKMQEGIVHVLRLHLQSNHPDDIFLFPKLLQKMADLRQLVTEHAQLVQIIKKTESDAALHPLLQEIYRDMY
Briefly: Transactivation activity at human PPARalpha expressed in african green monkey CV1 cells after 24 hrs by luciferase reporter gene assay. The assay is classed as cell-based, CV-1. (Reporter assays use an easily measured gene product as a stand-in for the process of interest.)

For assay [2], the target named is T2, Peroxisome proliferator-activated receptor gamma (Homo sapiens, UniProt P37231).
T2 sequence (P37231 whole entry): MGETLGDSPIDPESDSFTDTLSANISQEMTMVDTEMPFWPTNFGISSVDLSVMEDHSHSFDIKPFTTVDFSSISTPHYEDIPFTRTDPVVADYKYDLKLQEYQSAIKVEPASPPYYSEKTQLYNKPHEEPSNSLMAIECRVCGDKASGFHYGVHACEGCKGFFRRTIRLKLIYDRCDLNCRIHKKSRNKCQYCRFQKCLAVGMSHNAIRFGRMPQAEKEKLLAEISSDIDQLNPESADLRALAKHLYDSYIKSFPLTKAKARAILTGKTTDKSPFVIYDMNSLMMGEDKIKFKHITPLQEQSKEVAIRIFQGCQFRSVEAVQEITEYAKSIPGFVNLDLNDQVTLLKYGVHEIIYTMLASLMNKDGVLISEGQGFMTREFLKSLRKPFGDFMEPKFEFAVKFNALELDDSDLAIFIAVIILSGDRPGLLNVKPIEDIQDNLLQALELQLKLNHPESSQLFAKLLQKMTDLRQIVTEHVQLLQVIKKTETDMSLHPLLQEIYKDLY
Briefly: Transactivation activity at human PPARgamma expressed in african green monkey CV1 cells after 24 hrs by luciferase reporter gene assay. Type of assay: cell-based, CV-1.

The target of assay [3] is T3, Peroxisome proliferator-activated receptor delta (Homo sapiens, UniProt Q03181).
T3 sequence (Q03181 whole entry): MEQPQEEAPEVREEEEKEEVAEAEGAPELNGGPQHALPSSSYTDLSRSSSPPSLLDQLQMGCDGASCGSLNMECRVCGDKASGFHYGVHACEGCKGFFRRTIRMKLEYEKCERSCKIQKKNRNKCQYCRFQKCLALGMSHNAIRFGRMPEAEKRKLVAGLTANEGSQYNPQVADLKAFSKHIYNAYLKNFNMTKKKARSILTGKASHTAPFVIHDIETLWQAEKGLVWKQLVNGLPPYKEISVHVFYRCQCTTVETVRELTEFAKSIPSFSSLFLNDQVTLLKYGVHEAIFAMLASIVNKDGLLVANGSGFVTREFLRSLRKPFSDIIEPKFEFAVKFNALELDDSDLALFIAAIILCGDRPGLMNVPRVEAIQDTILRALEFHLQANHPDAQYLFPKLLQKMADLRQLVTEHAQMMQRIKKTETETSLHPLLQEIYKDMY
Briefly: Transactivation activity at human PPARdelta expressed in african green monkey CV1 cells after 24 hrs by luciferase reporter gene assay. The assay is classed as cell-based, CV-1.

The species named for another assay is Homo sapiens. Briefly: Selectivity ratio of EC50 for human PPARalpha to EC50 for human PPARdelta.
In assay [4] the target is T3, Peroxisome proliferator-activated receptor delta. Briefly: Binding affinity at human GST-tagged PPARdelta ligand binding domain after 1 hr by time-resolved FRET analysis.
A further assay has as its system Mus musculus. Briefly: Antiobesity activity in high-fat diet fed C57BL/6 mouse assessed as decrease in body weight gain at 10 mg/kg, po QD relative to control. The assay is classed as functional. On the set-up: scale not given: the % may be the effect or the level left.

The term EC50 denotes the concentration giving half of the maximal effect. As to `Cc1cc(SC(Cc2c(Cl)cccc2Cl)c2sc(-c3ccc(C(F)(F)F)cc3)nc2C)ccc1OCC(=O)O` (stereo unspecified), the EC50 in assay [1] was greater than 10 µM; in assay [2], greater than 10 µM; in assay [3] it was 0.0028 µM. For the same compound, the Ratio EC50 in the assay listed under Homo sapiens was 10000.
Consider `Cc1cc(SC(Cc2ccc(-c3ccccc3)cc2)c2sc(-c3ccc(C(F)(F)F)cc3)nc2C)ccc1OCC(=O)O` (stereo unspecified), for which the EC50 is greater than 10 µM in assay [1], greater than 10 µM in assay [2] and 0.0044 µM in assay [3].
Turning to `Cc1cc(SC(Cc2ccc(F)cc2F)c2sc(-c3ccc(C(F)(F)F)cc3)nc2C)ccc1OCC(=O)O` (stereo unspecified), the EC50 in assay [1] was greater than 10 µM; in assay [2] it was greater than 10 µM; in assay [3], 0.0046 µM. In addition, in the assay filed under Homo sapiens, the Ratio EC50 turned out to be 10000.
`Cc1cc(SC(c2sc(-c3ccc(C(F)(F)F)cc3)nc2C)C(c2ccccc2)c2ccccc2)ccc1OCC(=O)O` (stereo unspecified): the EC50 was greater than 10 µM in assay [1], greater than 10 µM in assay [2] and 0.523 µM in assay [3].
For the compound `Cc1cc(SC(CC(C)C)c2sc(-c3ccc(C(F)(F)F)cc3)nc2C)ccc1OCC(=O)O` (stereo unspecified), the values for the EC50 in assay [1], in assay [2] and in assay [3] were 0.592 µM, greater than 10 µM and 0.0011 µM, respectively.
In the case of `Cc1cc(SC(CCCc2ccccc2)c2sc(-c3ccc(C(F)(F)F)cc3)nc2C)ccc1OCC(=O)O` (stereo unspecified), the EC50 in assay [1] and in assay [2] was greater than 10 µM throughout.
On to `Cc1cc(SC(CCCCCCCc2ccccc2)c2sc(-c3ccc(C(F)(F)F)cc3)nc2C)ccc1OCC(=O)O` (stereo unspecified), for which the concentration for a half-maximal effect (EC50) in assay [1] and in assay [2] was greater than 10 µM in each case.
In the case of `Cc1cc(SC(Cc2cc(F)c(F)c(F)c2)c2sc(-c3ccc(C(F)(F)F)cc3)nc2C)ccc1OCC(=O)O` (stereo unspecified), the EC50 in assay [1] is greater than 10 µM; in assay [2], greater than 10 µM; in assay [3], 0.0067 µM.
As for `Cc1cc(SC(Cc2c(F)c(F)c(F)c(F)c2F)c2sc(-c3ccc(C(F)(F)F)cc3)nc2C)ccc1OCC(=O)O` (stereo unspecified), the EC50 is greater than 10 µM in assay [1], greater than 10 µM in assay [2] and 0.0081 µM in assay [3]. The Ratio EC50 in the assay listed under Homo sapiens turned out to be 10000.
Take `Cc1cc(SC(Cc2c(F)cccc2Cl)c2sc(-c3ccc(C(F)(F)F)cc3)nc2C)ccc1OCC(=O)O` (stereo unspecified): the figures for the EC50 in assay [1], in assay [2] and in assay [3] were greater than 10 µM, greater than 10 µM and 0.0012 µM, respectively. Moreover, in the assay filed under Homo sapiens, the Ratio EC50 was 10000.
On to `Cc1cc(SC(Cc2cccc3ccccc23)c2sc(-c3ccc(C(F)(F)F)cc3)nc2C)ccc1OCC(=O)O` (stereo unspecified), for which the EC50 in assay [1] was greater than 10 µM; in assay [2], greater than 10 µM; in assay [3], 0.49 µM.
Take `CCCc1c(OCCCSc2ccc(CC(=O)O)cc2Cl)ccc2c(C(F)(F)F)noc12`: it took 0.0079 µM to reach a half-maximal effect in assay [4] (EC50).
As to `Cc1cc(SC(C)c2sc(-c3ccc(C(F)(F)F)cc3)nc2C)ccc1OCC(=O)O` (stereo unspecified), the figures for the EC50 in assay [1], in assay [2] and in assay [3] were 0.136 µM, greater than 10 µM and 0.0018 µM, respectively.
Turning to `Cc1cc(SC(Cc2c(F)cccc2C(F)(F)F)c2sc(-c3ccc(C(F)(F)F)cc3)nc2C)ccc1OCC(=O)O` (stereo unspecified), the EC50 was greater than 10 µM in assay [1], greater than 10 µM in assay [2] and 0.0012 µM in assay [3]. Moreover, in the assay filed under Homo sapiens, the Ratio EC50 was 10000. For the same compound, in the assay with Mus musculus, the Activity was 24%.
With `Cc1cc(SC(Cc2c3ccccc3cc3ccccc23)c2sc(-c3ccc(C(F)(F)F)cc3)nc2C)ccc1OCC(=O)O` (stereo unspecified), the EC50 in assay [1] and in assay [2] was greater than 10 µM each time.
Take `Cc1cc(SC(CCCCc2ccccc2)c2sc(-c3ccc(C(F)(F)F)cc3)nc2C)ccc1OCC(=O)O` (stereo unspecified): the EC50 in assay [1] and in assay [2] was greater than 10 µM each time.
`Cc1cc(SC(CCCCCCCCCCc2ccccc2)c2sc(-c3ccc(C(F)(F)F)cc3)nc2C)ccc1OCC(=O)O` (stereo unspecified): the concentration giving a half-maximal response (EC50) in assay [1] and in assay [2] was greater than 10 µM each time.
For the compound `Cc1cc(SC(CC2CC2)c2sc(-c3ccc(C(F)(F)F)cc3)nc2C)ccc1OCC(=O)O` (stereo unspecified), the EC50 in assay [1] was 0.861 µM; in assay [2] it was greater than 10 µM; in assay [3], 0.0011 µM.
In the same order, the values of `Cc1cc(SC(Cc2ccc([N+](=O)[O-])cc2)c2sc(-c3ccc(C(F)(F)F)cc3)nc2C)ccc1OCC(=O)O` (stereo unspecified) are greater than 10 µM, greater than 10 µM and 0.06 µM.
On to `Cc1cc(SC(CCCCCc2ccccc2)c2sc(-c3ccc(C(F)(F)F)cc3)nc2C)ccc1OCC(=O)O` (stereo unspecified), for which the EC50 in assay [1] and in assay [2] was greater than 10 µM throughout.
As to `Cc1cc(SC(CCc2ccccc2)c2sc(-c3ccc(C(F)(F)F)cc3)nc2C)ccc1OCC(=O)O` (stereo unspecified), the EC50 in assay [1] was greater than 10 µM; in assay [2], greater than 10 µM; in assay [3], 0.0026 µM.
As for `Cc1cc(SC(Cc2ccc(C(F)(F)F)cc2)c2sc(-c3ccc(C(F)(F)F)cc3)nc2C)ccc1OCC(=O)O` (stereo unspecified), the results for the EC50 in assay [1], in assay [2] and in assay [3] were greater than 10 µM, greater than 10 µM and 0.0094 µM, respectively.
Consider `Cc1cc(SC(Cc2c(F)cccc2F)c2sc(-c3ccc(C(F)(F)F)cc3)nc2C)ccc1OCC(=O)O` (stereo unspecified), for which the EC50 is greater than 10 µM in assay [1], greater than 10 µM in assay [2] and 0.0021 µM in assay [3]. Further, the Ratio EC50 in the assay listed under Homo sapiens stood at 10000. In addition, the Activity with Mus musculus came out at 35%.
Turning to `COc1ccc(CC(Sc2ccc(OCC(=O)O)c(C)c2)c2sc(-c3ccc(C(F)(F)F)cc3)nc2C)cc1` (stereo unspecified), the EC50 is greater than 10 µM in assay [1], greater than 10 µM in assay [2] and 0.0048 µM in assay [3].
With `Cc1cc(SC(Cc2cc(F)ccc2F)c2sc(-c3ccc(C(F)(F)F)cc3)nc2C)ccc1OCC(=O)O` (stereo unspecified), the figures for the EC50 in assay [1], in assay [2] and in assay [3] were greater than 10 µM, greater than 10 µM and 0.0167 µM, respectively. Further, in the assay listed under Homo sapiens, the Ratio EC50 is 10000.
